Reference: patent publication US7250410B2, “Cyclic nucleotide phosphodiesterase inhibitors, preparation and uses thereof” (Via Pharmaceuticals, Inc., priority 2001, dated 2007)
Values joined by “and” are separate entries in the source; they are usually repeats but may differ in a detail not shown here. Identical values can stand only once.

Tests used:
Assay type in all cases: biochemical, bovine
[1] = biological target: T1, PDE5 (Bos taurus, UniProt Q28156); test: Selectivity: inhibition of PDE5, radioenzymatic phosphodiesterase assay; settings: Table 4 Selectivity; compound at 10 μM; read-out: PDE5 percentage inhibition at 10 μM
T1 construct: localize the different enzymes PDE1, PDE3, PDE4 and PDE5, which were aliquoted and frozen; from tissue; host or cells: bovine aortic media (vascular smooth muscle), DEAE-Sephacel fraction
Method: (§1) A 3 g segment of bovine aortic media cut into pieces with scissors was homogenized with an ultra-turrax then a potter glass/glass homogenizer in 7 volumes by weight of buffer A containing a protease inhibitor cocktail (20 mM Tris-HCl, 0.25 M saccharose, 2 mM magnesium acetate, 1 mM dithiothreitol, 5 mM EGTA, 2000 U/ml aprotinin, 10 mg/l leupeptin and 10 mg/l soya trypsic inhibitor). The homogenizate was centrifuged at 105,000 g for 1 hour. The supernatant was loaded on a DEAE-Sephacel column (15×1.6 cm) pre-equilibrated with buffer B (buffer A without the saccharose, EGTA and protease inhibitors). The column was washed until there was no detectable absorption at 280 nm, then eluted with a linear gradient of NaCl (0–0.5 M) in buffer B. 3-ml fractions were collected and enzyme activity was determined under the conditions described hereinafter to localize the different enzymes PDE1, PDE3, PDE4 and PDE5, which were aliquoted and frozen at −80° C. (Lugnier et al., Biochem. Phamacol., 35 (1986) 1746–1751). PDE2 was prepared from bovine endothelial cells by the same methods (Lugnier and Schini, Biochem. Pharmacol. 1990, 39; 75–84).
(§2) Cyclic nucleotide phosphodiesterase activity was determined by a radioenzymatic method using tritium-labelled cyclic GMP or AMP (1 μM) as substrate (Lugnier et al., 1986). ^3H-labelled adenosine or guanosine monophosphate formed by hydrolysis of the radiolabelled cyclic nucleotide was then converted to ^3H-labelled adenosine or guanosine in a second reaction with […] in excess. The nucleoside formed was separated from the nucleotides by anion exchange chromatography. Nucleoside radioactivity was determined by liquid scintillation counting. Enzymatic incubations were carried out under conditions allowing no more than 15% hydrolysis of the substrate; each point was performed in duplicate.
(§3) The activity of the compounds was evaluated on other phosphodiesterase isoforms, particularly basal state or calmodulin-activated PDE1 from vascular smooth muscle, basal state or cyclic GMP-activated PDE2 from vascular endothelial cells, PDE3 and PDE5 from vascular smooth muscle.
(§4) The results obtained are presented in Table 4 hereinafter and are expressed as the percentage inhibition of enzymatic activity produced by […] of the tested compound.

[2] = biological target: PDE4; test: Inhibition of PDE4, radioenzymatic phosphodiesterase assay
How it was run: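 PDE4 partially purified from bovine aortic media by 105,000 g centrifugation and anion-exchange chromatography with an NaCl gradient. Activity measured radioenzymatically: product nucleoside separated from nucleotides by anion exchange and counted by liquid scintillation.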

[3] = biological target: T2, PDE3 (Bos taurus, UniProt A0A3Q1M1E8); test: Selectivity: inhibition of PDE3, radioenzymatic phosphodiesterase assay; settings: read-out: PDE3 percentage inhibition at 10 μM
T2 sequence (A0A3Q1M1E8 1-1126): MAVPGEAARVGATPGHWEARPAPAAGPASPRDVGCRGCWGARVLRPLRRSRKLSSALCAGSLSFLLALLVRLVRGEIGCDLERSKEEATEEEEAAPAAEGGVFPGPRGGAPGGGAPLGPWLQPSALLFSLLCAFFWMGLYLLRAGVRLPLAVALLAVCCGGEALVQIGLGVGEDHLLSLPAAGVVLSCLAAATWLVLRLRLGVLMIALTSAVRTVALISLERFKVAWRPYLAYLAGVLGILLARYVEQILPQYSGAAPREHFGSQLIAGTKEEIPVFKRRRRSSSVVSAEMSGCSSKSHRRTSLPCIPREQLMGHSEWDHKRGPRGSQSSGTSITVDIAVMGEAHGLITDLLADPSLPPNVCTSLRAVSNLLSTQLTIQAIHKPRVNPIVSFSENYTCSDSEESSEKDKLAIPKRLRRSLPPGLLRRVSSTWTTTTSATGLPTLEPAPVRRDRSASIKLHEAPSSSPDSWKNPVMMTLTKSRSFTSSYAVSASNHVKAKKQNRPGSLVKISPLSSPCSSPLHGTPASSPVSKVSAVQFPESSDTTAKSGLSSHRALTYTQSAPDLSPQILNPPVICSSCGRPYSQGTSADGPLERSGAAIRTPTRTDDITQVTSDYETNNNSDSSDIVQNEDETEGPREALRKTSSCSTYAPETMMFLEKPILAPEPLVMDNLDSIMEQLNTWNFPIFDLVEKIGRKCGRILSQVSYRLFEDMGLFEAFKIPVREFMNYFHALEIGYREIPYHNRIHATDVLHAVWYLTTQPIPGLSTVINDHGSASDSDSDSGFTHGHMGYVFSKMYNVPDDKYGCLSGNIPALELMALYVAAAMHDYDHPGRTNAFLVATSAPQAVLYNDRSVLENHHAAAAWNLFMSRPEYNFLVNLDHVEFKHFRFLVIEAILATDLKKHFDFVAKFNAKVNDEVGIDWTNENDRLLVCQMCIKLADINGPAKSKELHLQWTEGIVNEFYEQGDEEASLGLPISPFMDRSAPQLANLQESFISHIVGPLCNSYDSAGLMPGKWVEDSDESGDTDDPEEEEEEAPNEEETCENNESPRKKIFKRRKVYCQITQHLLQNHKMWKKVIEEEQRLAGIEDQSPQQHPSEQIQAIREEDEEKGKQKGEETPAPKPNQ
Method: as §1, §2, §3, §4

Compound	inhibition at 10 µM [1]	IC50 ([2]; Table 2, formula (XXII), 1 μM cyclic AMP)	IC50 ([2]; Table 4 Selectivity)	inhibition at 10 µM [3]	IC50 ([2]; Table 3, formula (II), 1 μM cyclic AMP)
CCOc1cc2c(cc1OCC)C(c1ccccc1)=NCC(=O)N2 [XXIIag, 7,8-diethoxy-5-phenyl-1,3-dihydro-2H-1,4-benzodiazepin-2-one]	35%	950 nM	950 nM	22%	
CCOc1cc2c(cc1OC)C(c1ccccc1)=NCC(=O)N2C [IIda, 8-ethoxy-7-methoxy-1-methyl-5-phenyl-1,3-dihydro-2H-1,4-benzodiazepin-2-one]	14%		500 nM	47%	550 nM and 430 nM
